≈ marks a conversion by molar mass, not a printed value. Entries after “also recorded” stand apart in the source; their conditions may differ. Read-outs that look alike come from different tables or passages of the source.
Tests used:
IFN-γ = IFN-γ production by human peripheral blood leukocytes; assay type: cell-based; settings: Leukocyte, stimulus PHA, read-out: % Inhibition (compared to control) of IFN-γ
Method: (§1) The effects of the nitroalkanes (Lx1-Lx5) on lymphocyte activation and cytokine production were examined. The ability of the PUFA to suppress mitogen-induced proliferation in response to PHA and S. aureus, and to inhibit cytokine production (TNFα and IFNγ), was assessed.

P. berghei = assay type: in vivo; parameters: Parasitaemia: unit not given here; settings: for Parasitaemia: 40 mg/kg from one day prior to infection, twice a day
Method: In other sets of experiments, the effects of Lx3 were examined in vivo in mice infected with P. berghei. FIG. 10 illustrates the effect of Lx3 on the level of P. berghei parasitaemia in the mice. Results are the means ±SEM of five mice per group. Mice were infected intraperitoneally with the parasite and when an appropriate parasitaemia was reached they were treated intravenously with 40 mg/kg weight of MP3.
Mice were treated at one day prior to infection with 2 doses of 40 mg/kg body weight and then another dose 60 min prior to infection (0 time) on the following day. The parasitaemia was checked 4 h later and at the times stipulated in the Table. The animals were treated with either DPC or Lx3 twice a day 30 min after taking a parasitaemia reading. The results are presented as mean ±SEM of parasitaelnia of 4 mice per group.

Red blood cells = assay: Incorporation of Lx3 into normal red blood cells; assay type: cell-based; settings: 200 μg Lx3, 37° C., 4 h
Method: Red blood cells or parasitised red blood cells (K+ strain, 9.25% parasitaenia) (5×10^8 cells) were incubated with 200 μg of Lx3 in 10 mls of HBSS at 37° C. for 4 h. The incubate was centrifuged (3,000 rpm for 10 min) and the medium aspirated. The cell pellet was washed 3 times with 5 ml of HBSS with centrifugation. Lipids were extracted from the cell pellet and neutral lipids, phospholipids and unesterffied Lx3 were resolved by thin-layer chromatography. The neutral lipid and phospholipid samples were transesterified to release any bound Lx3. The amount of Lx3 associated with the unesterifield, neutral lipid and phospholipid fractions was quantitated by gas-liquid chromatography using nonadecanoic acid (nonadecylic acid (19:0)) methyl ester (48 nmol) as a reference standard. For definitive identification of Lx3 and possible products (elongation, de-saturation, shorter-chain products), a combined gas-liquid chromatography-mass spectrometry (GC-MS) technique was employed. FIG. 6 is the GC-MS (expanded view) of Lx3 isolated from parasitised RBC. The mass spectrum of each peak unambiguously identifies 19:0 and Lx3 (19:3(n-6)-N02) respectively. […] No Lx3 was esterified in neutral lipids and phospholipids (Table 4). It is important to note that parasitised red blood cells took up approximately 6 times more Lx3 than non-parasitised cells. […]

[1] = tested on: parasitised red blood cells (K+ strain); assay: Incorporation of Lx3 into parasitised red blood cells; assay type: cell-based, P. falciparum
Method: Red blood cells or parasitised red blood cells (K+ strain, 9.25% parasitaenia) (5×10^8 cells) were incubated with 200 μg of Lx3 in 10 mls of HBSS at 37° C. for 4 h. The incubate was centrifuged (3,000 rpm for 10 min) and the medium aspirated. The cell pellet was washed 3 times with 5 ml of HBSS with centrifugation. Lipids were extracted from the cell pellet and neutral lipids, phospholipids and unesterffied Lx3 were resolved by thin-layer chromatography. The neutral lipid and phospholipid samples were transesterified to release any bound Lx3. The amount of Lx3 associated with the unesterifield, neutral lipid and phospholipid fractions was quantitated by gas-liquid chromatography using nonadecanoic acid (nonadecylic acid (19:0)) methyl ester (48 nmol) as a reference standard. For definitive identification of Lx3 and possible products (elongation, de-saturation, shorter-chain products), a combined gas-liquid chromatography-mass spectrometry (GC-MS) technique was employed. FIG. 6 is the GC-MS (expanded view) of Lx3 isolated from parasitised RBC. The mass spectrum of each peak unambiguously identifies 19:0 and Lx3 (19:3(n-6)-N02) respectively. […] No Lx3 was esterified in neutral lipids and phospholipids (Table 4). It is important to note that parasitised red blood cells took up approximately 6 times more Lx3 than non-parasitised cells. […] The lack of derivatisation or incorporation of Lx3 into neutral lipids and phospholipids is almost certainly due to Lx3 not having a carboxylic acid group which is mandatory for the conversion of a fatty acid to its coenzyme A ester.

TNF-α = TNF-α production by human peripheral blood leukocytes; assay type: cell-based; settings: Leukocyte, stimulus S. aureus, read-out: % Inhibition (compared to control) of TNF-α
Method: as §1

[2] = tested on: Plasmodium falciparum isolates 3D7, FC27, K+; assay: Radiometric (3H-hypoxanthine) assay on asexual blood stages of P. falciparum; assay type: cell-based; settings: for EC50: Plasmodium falciparum, read-out: EC50 against P. falciparum
Method: Using the radiometric assay^(36), the effects of the Lx compounds were examined for antimalarial activity. The Plasmodium falciparum isolates used were 3D7, FC27, K^1 and K^+. These were maintained in human blood group O^+ erythrocytes essentially as described previously using RPM-1640 (HEPES modification) supplemented with 0.25% D-glucose, 0.2% Tess buffer (Sigma Chemical Co, Lt Louis, Mo.) and 10% heat inactivated (56° C., 20 min) human blood group AB serum. Cultures were maintained in tissue culture flasks (Corning, N.Y.) at 37° C. under an atmosphere of 1% 2, 5% CO2 in N2. P. falciparum cultures containing approximately 3.0:% parasitaemia were adjusted to 1×10^8 erythrocytes/ml. To 50 μl of the parasite-erythrocyte culture (5×10^6 erythrocytes) in wells of 96-well microdilution plates wvas added 50 μl of the designated concentration of fatty acid or equivalent amounts of solutions or media. The treated cultures were incubated at 37° C. for 4 h and then pulsed with 50 μl (2.5 μCi) of ^3H-hypoxanthine. After a further 18 h incubation the parasites-erythrocytes were harvested onto glass fibre filter papers using a cell harvester. The amount of radioactivity incorporated was measured in a β-counter. The results have been expressed as % inhibition of parasite growth i.e. the dpm in the fatty acid diluent−dpm in the fatty acid treated cultures/dpm in diluent×100.

Paw oedema = settings: in vivo
15-LO = molecular target: T1, 15-LO (Glycine max, UniProt P08170); assay: Effect on 15-LO catalysed oxidation of arachidonic acid; assay type: biochemical, soybean
T1 construct: purchased Sigma Chemical Company
T1 sequence (P08170 1-839): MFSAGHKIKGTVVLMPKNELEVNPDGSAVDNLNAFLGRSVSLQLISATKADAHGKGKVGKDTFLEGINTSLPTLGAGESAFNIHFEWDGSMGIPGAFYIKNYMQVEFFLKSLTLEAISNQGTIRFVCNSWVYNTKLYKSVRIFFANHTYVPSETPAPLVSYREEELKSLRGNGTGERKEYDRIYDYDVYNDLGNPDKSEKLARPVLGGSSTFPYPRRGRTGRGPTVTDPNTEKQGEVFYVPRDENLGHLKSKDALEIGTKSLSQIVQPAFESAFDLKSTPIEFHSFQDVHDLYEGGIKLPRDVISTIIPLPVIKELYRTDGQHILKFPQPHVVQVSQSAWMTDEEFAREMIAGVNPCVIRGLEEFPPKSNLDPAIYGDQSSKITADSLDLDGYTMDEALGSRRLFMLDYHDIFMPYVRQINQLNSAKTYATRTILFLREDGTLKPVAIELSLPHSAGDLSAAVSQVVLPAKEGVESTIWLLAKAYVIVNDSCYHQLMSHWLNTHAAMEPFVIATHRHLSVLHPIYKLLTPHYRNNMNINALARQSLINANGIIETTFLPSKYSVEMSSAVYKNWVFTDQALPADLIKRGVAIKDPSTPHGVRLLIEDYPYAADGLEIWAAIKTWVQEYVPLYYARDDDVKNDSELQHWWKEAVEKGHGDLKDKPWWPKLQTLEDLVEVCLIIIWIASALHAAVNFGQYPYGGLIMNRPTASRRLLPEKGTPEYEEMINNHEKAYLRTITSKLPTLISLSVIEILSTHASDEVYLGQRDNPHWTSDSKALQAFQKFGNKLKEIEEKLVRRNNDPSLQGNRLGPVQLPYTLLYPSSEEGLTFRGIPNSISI

P. falciparum = settings: 20 μg/ml
Method: Parasites were treated with 20 μg/ml of compound. Results are means of triplicate assays of one experiment and are consistent with that found in three experiments.

Recovered cellular Lx3, unesterified Lx3 (Red blood cells): 2.1 ± 0.2 % of total added
Recovered cellular Lx3, unesterified Lx3 ([1]; parasitised red blood cells, 200 μg Lx3, 37° C., 4 h): 12.9 ± 0.4 % of total added
EC50 ([2]; 3D7, isolate FC27): 6 µg/mL (≈ 20.4 µM)
EC50 ([2]; 3D7, isolate K+): 3 µg/mL (≈ 10.2 µM)
EC50 ([2]; isolate 3D7): 2 µg/mL (≈ 6.82 µM)
Effect on 15-LO catalysed oxidation of AA (15-LO): Nil
SMILES: CCCCC/C=C\C/C=C\C/C=C\CCCCC[N+](=O)[O-] [Lx3, (z,z,z)-1-Nitro-6,9,12-octadecatriene]
inhibition at 20 µM (IFN-γ): 37.6%
Tolerability in mice (P. berghei; intravenous 40 mg/kg): tolerated Lx3 quite well
Parasitaemia (P. berghei; mice, 4 h after infection): 0.18 ± 0.05
Parasitaemia (P. berghei; mice, 22 h after infection): 0.30 ± 0.10
Parasitaemia (P. berghei; mice, 28 h after infection): 0.14 ± 0.05
Parasitaemia (P. berghei; mice, 46 h after infection): 0.40 ± 0.14
Change in circulating parasites (parasitaemia) (P. berghei; mice, single intravenous dose 40 mg/kg, within 5 h after injection): marked drop in circulating parasites
Form of the compound taken up by the cells ([1]; GC-MS): remained exclusively in the unesterified form
Elongation, chain-shortening or de-saturation products detected ([1]; either cell population, GC-MS): No elongation, chain-shortening or de-saturation products
inhibition at 20 µM (TNF-α): 48.2%
Antimalarial activity (in words) [2]: very active
Activity against a chloroquine resistant isolate ([2]; chloroquine resistant isolate): active
Reduction of antimalarial activity by human serum ([2]; compound 20 μg/ml, presence of human serum): did not affect the activity; also recorded: not inhibited by serum
Antimalarial activity on P. falciparum 3D7 (FIG. 1, in words) ([2]; isolate 3D7): greatest activity
Effect in paw oedema (Paw oedema): either inflammatory or anti-inflammatory
Morphology of parasites in treated cultures (P. falciparum): degenerate mature rings, trophozoites and shizonts
